Assay type in all cases: functional
Test [1] relates to U-937. Kind of test: Cytotoxic activity against human U937 cell line was measured after 72 hr using MTT assay. As to conditions: for EC50: Homo sapiens, U-937, 72 h, read-out: ED50 (the source's name). In general terms: Formazan colour is commonly taken as a measure of viable cells.
Test [2] concerns Jurkat. Kind of test: Cytotoxic activity against human JurkatE6.1 cell line was measured after 72 h using MTT assay. The following applies: for EC50: Homo sapiens, Jurkat, 72 h, read-out: ED50 (the source's name).
The test system of test [3] is CCRF-CEM. Kind of test: Cytotoxic activity against human CEM.CM3 cell line was measured after 72 hr using MTT assay. The following applies: for EC50: Homo sapiens, CCRF-CEM, 72 h, read-out: ED50 (the source's name).
In test [4] the test system is PA-1. Kind of test: Cytotoxic activity against human PA-1 cell line was measured after 72 hr using MTT assay. The following applies: for EC50: Homo sapiens, PA-1, 72 h, read-out: ED50 (the source's name).
In test [5] the test system is MOLT-4. Kind of test: Cytotoxic activity against human MOLT-4 cell line was measured after 72 hr using MTT assay. The following applies: for EC50: Homo sapiens, MOLT-4, 72 h, read-out: ED50 (the source's name).
The subject of test [6] is DU-145. Kind of test: Cytotoxic activity against human DU145 cell line was measured after 72 hr using MTT assay. As to conditions: for EC50: Homo sapiens, DU-145, 72 h, read-out: ED50 (the source's name).
In test [7] the test system is BRISTOL8. Kind of test: Cytotoxic activity against human BRISTOL8 cell line was measured after 72 hr using MTT assay. As to conditions: for EC50: Homo sapiens, BRISTOL8, 72 h, read-out: ED50 (the source's name).
Test [8] concerns A549. Kind of test: Cytotoxic activity against human A549 cell line was measured after 72 hr using MTT assay. The following applies: A549, 72 h, read-out: ED50 (the source's name).
Test [9] concerns L132. Kind of test: Cytotoxic activity against human L132 cell line was measured after 72 hr using MTT assay. The following applies: L132, 72 h, read-out: ED50 (the source's name).

In brackets after ≈: the same amount, converted by molar mass.

Regarding `C=C(C)[C@@H]1CC[C@]2(C(=O)CC(=O)OC)CC[C@]3(C)C(CCC4[C@@]5(C)CC[C@H](O)C(C)(C)C5CC[C@]43C)C12` (stereo partly drawn), the EC50 in test [1] was over 10 µg/mL; in test [2] it was 7.4 µg/mL (≈ 14.4 µM); in [3], 6.4 µg/mL (≈ 12.5 µM); in test [4], 7.1 µg/mL (≈ 13.8 µM); in test [5], 3.9 µg/mL (≈ 7.61 µM); in test [6], 2.9 µg/mL (≈ 5.66 µM). Besides, the EC50 is 4.5 µg/mL (≈ 8.78 µM) in test [7], over 10 µg/mL in test [8] and over 10 µg/mL in test [9].

Turning to `COC(=O)COC(=O)[C@]12CC[C@@H](C(C)C)C1C1CCC3[C@@]4(C)CC(Br)C(=O)C(C)(C)C4CC[C@@]3(C)[C@]1(C)CC2` (stereo partly drawn), the EC50 in [1] is 1.1 µg/mL (≈ 1.81 µM); in [2], 2.8 µg/mL (≈ 4.61 µM); in test [3], 2.1 µg/mL (≈ 3.46 µM); in test [4], 3.2 µg/mL (≈ 5.27 µM); in [5], 1.7 µg/mL (≈ 2.8 µM); in test [6], 6.8 µg/mL (≈ 11.2 µM). The EC50 was 3.4 µg/mL (≈ 5.6 µM) in test [7], over 10 µg/mL in test [8] and over 10 µg/mL in test [9].

In the case of `C=C(C)[C@@H]1CC[C@]2(C(=O)O)CC[C@]3(C)C(CCC4[C@@]5(C)CC/C(=N\Nc6ccccc6)C(C)(C)C5CC[C@]43C)C12` (stereo partly drawn), the EC50 is 2.4 µg/mL (≈ 4.41 µM) in test [1]; 2.6 µg/mL (≈ 4.77 µM) in test [2]; 3.1 µg/mL (≈ 5.69 µM) in test [3]; 5.3 µg/mL (≈ 9.73 µM) in test [4]; 3.4 µg/mL (≈ 6.24 µM) in test [5]; 2.4 µg/mL (≈ 4.41 µM) in [6]. The EC50 in test [7] is 3.4 µg/mL (≈ 6.24 µM); in test [8], over 10 µg/mL; in test [9], 4.3 µg/mL (≈ 7.89 µM).

On to `C=C(C)[C@@H]1CC[C@]2(C(=O)O)CC[C@]3(C)C(CCC4[C@@]5(C)CC[C@H](OC(=O)C(C)C(=O)OC)C(C)(C)C5CC[C@]43C)C12` (stereo partly drawn), for which the EC50 worked out at 1.1 µg/mL (≈ 1.93 µM) in test [1]; 0.9 µg/mL (≈ 1.58 µM) in [2]; 1.6 µg/mL (≈ 2.8 µM) in test [3]; 3.6 µg/mL (≈ 6.31 µM) in test [4]; 1.2 µg/mL (≈ 2.1 µM) in [5]; 1.6 µg/mL (≈ 2.8 µM) in test [6]. The values for the EC50 in [7], in [8] and in test [9] were 1.7 µg/mL (≈ 2.98 µM), over 10 µg/mL and over 10 µg/mL, respectively.

Turning to `CC(=O)O[C@H]1C(Br)C[C@@]2(C)C(CC[C@]3(C)C2CCC2C4[C@H](C(C)(Br)CBr)CC[C@]4(C(=O)O)CC[C@]23C)C1(C)C` (stereo partly drawn), the EC50 in test [1] was 0.3 µg/mL (≈ 0.407 µM); in test [2] it was 6.9 µg/mL (≈ 9.36 µM); in test [3] it was 2.7 µg/mL (≈ 3.66 µM); in test [4], 2.4 µg/mL (≈ 3.25 µM); in test [5] it was 2.8 µg/mL (≈ 3.8 µM); in test [6] it was 2.5 µg/mL (≈ 3.39 µM). For the same compound, the EC50 is 1.4 µg/mL (≈ 1.9 µM) in [7], over 10 µg/mL in test [8] and over 10 µg/mL in test [9].

Regarding `C=C(C)[C@@H]1CC[C@]2(C(=O)O)CC[C@]3(C)C(CCC4[C@@]5(C)CC[C@H](OC(C)=O)C(C)(C)C5CC[C@]43C)C12` (stereo partly drawn), the EC50 in test [1] stood at 1.6 µg/mL (≈ 3.21 µM); in test [2] it was 1.8 µg/mL (≈ 3.61 µM); in test [4], 4.1 µg/mL (≈ 8.22 µM); in test [5], 3.1 µg/mL (≈ 6.22 µM); in test [6], 2.6 µg/mL (≈ 5.21 µM); in [7] it was 4.8 µg/mL (≈ 9.62 µM). In addition, the EC50 in [8] and in test [9] was over 10 µg/mL throughout.

Consider `C=C(C)[C@@H]1CC[C@]2(C(=O)OCC(=O)OC)CC[C@]3(C)C(CCC4[C@@]5(C)CC[C@H](O)C(C)(C)C5CC[C@]43C)C12` (stereo in doubt; 4), for which the ED50 in [1] was determined as 5.4 µg/mL (≈ 10.2 µM); in test [2], 3.1 µg/mL (≈ 5.86 µM); in test [3] it was 5.9 µg/mL (≈ 11.2 µM); in test [4], 3.1 µg/mL (≈ 5.86 µM); in test [5], 2.9 µg/mL (≈ 5.48 µM); in test [6], 1.9 µg/mL (≈ 3.59 µM). In test [7], the ED50 was 7.4 µg/mL (≈ 14 µM).

With `CC(C)[C@@H]1CC[C@]2(C(=O)O)CC[C@]3(C)C(CCC4[C@@]5(C)CC/C(=N\O)C(C)(C)C5CC[C@]43C)C12` (stereo partly drawn), the EC50 stood at 2.4 µg/mL (≈ 5.09 µM) in test [1]; 1.8 µg/mL (≈ 3.82 µM) in [2]; 2.6 µg/mL (≈ 5.51 µM) in test [3]; 0.7 µg/mL (≈ 1.48 µM) in test [4]; 2.1 µg/mL (≈ 4.45 µM) in test [5]; 1.1 µg/mL (≈ 2.33 µM) in test [6]. The EC50 in test [7] was 1.6 µg/mL (≈ 3.39 µM); in test [8], over 1.8 µg/mL; in test [9], 1.5 µg/mL (≈ 3.18 µM).

`COC(=O)CCOC(=O)[C@]12CC[C@@H](C(C)C)C1C1CCC3[C@@]4(C)CC(Br)C(=O)C(C)(C)C4CC[C@@]3(C)[C@]1(C)CC2` (stereo partly drawn): the EC50 stood at 1.2 µg/mL (≈ 1.93 µM) in test [1]; 1.9 µg/mL (≈ 3.06 µM) in [2]; 1.9 µg/mL (≈ 3.06 µM) in test [3]; 4.8 µg/mL (≈ 7.72 µM) in [4]; 1.2 µg/mL (≈ 1.93 µM) in test [5]; 6.6 µg/mL (≈ 10.6 µM) in test [6]. The EC50 in [7] was 2.3 µg/mL (≈ 3.7 µM); in test [8] it was over 10 µg/mL; in test [9] it was over 10 µg/mL.

For the origin of these results see ChEMBL document CHEMBL1138817, “Synthesis and cytotoxic activity of 3-O-acyl/3-hydrazine /2-bromo/20,29-dibromo betulinic acid derivatives” (2004).
